Data on eight molecules can be found in PMC6838683, “Discovery of Human Signaling Systems: Pairing Peptides to G Protein-Coupled Receptors” (Cell, 2019).

Read-outs that look alike come from different tables or passages of the source. Residues, ends and D or L forms follow the SMILES beside them.

For experiment [1], the target named is GPR55 (Homo sapiens, UniProt Q9Y2T6). Kind of experiment: Repeat of proposed literature pairing (mass redistribution and/or internalization). Format: cell-based. More on the design: hIL-2Ra signal peptide (N); expressed in transfected cells. Conditions: target GPR55. An excerpt: (§1) DMR assays provide a single integrated readout of ligand-dependent cellular response, utilizing an optical biosensor in specialized microplates to detect wavelength shifts of reflected light as it passes through the biosensor and the lower portion of the cell (∼150-200 nm). As a signal pathway agnostic approach, DMR assays are well-suited to the study of GPCRs ([Fang et al., 2008], [Schröder et al., 2011]). The mass redistribution response (Δ picometer (pm)) likely reflects a number of intracellular events, including cytoskeletal rearrangement, protein trafficking and receptor internalization. […] After 3-5 min baseline recordings, peptides (10 μM) were added in duplicate wells using an electronic 384-channel Viaflo pipette (Integra Biosciences, Switzerland) and DMR responses were measured for 60 min at 22°C. […] Real-time data were processed using the BT to column converter MS-Excel macro (Corning) and analyzed in GraphPad Prism 7.0. DMR recordings in peptide screening experiments were buffer and solvent corrected and the area under the curve (AUC) was quantified. […]
(§2) A TR-FRET real-time internalization assay was used to examine peptide-dependent changes in orphan receptor localization as described previously ([Foster and Bräuner-Osborne, 2018]). […] For peptide screening analysis (both DMR and internalization assays), we calculated the area under the curve from the real-time traces. […]

Experiment [2] deals with T1, GPR139 (Homo sapiens, UniProt Q6DWJ6).
T1 construct: hIL-2Ra signal peptide (N); expressed in transfected cells
T1 sequence (Q6DWJ6 2-353 limits assumed): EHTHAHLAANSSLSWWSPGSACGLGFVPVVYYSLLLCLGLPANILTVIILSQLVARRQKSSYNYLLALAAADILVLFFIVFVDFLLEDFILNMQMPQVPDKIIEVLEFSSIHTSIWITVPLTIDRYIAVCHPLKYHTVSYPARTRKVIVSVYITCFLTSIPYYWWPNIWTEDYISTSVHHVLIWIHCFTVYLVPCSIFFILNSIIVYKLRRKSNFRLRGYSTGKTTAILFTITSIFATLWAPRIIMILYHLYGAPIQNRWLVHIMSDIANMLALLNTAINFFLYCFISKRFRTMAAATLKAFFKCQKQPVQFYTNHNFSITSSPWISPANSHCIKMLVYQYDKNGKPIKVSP
Briefly: IP1 accumulation. Format: cell-based. Conditions: mean, SEM and n, read-out: pEC50, IP1 (converted). The source says:
Supplement mmc7.xlsx, sheet "Peptide validation data" | column: Emax; pEC50

The target of experiment [3] is T1, GPR139. Briefly: Repeat of proposed literature pairing (mass redistribution and/or internalization). Format: cell-based. The note with it: GPR139; mean, SEM and n; read-out: pEC50, DMR (peak) (converted). An excerpt:
DMR assays provide a single integrated readout of ligand-dependent cellular response, utilizing an optical biosensor in specialized microplates to detect wavelength shifts of reflected light as it passes through the biosensor and the lower portion of the cell (∼150-200 nm). As a signal pathway agnostic approach, DMR assays are well-suited to the study of GPCRs ([Fang et al., 2008], [Schröder et al., 2011]). The mass redistribution response (Δ picometer (pm)) likely reflects a number of intracellular events, including cytoskeletal rearrangement, protein trafficking and receptor internalization. Orphan receptor-expressing cells were gently washed twice with assay buffer (HBSS with 1 mM CaCl2, 1 mM MgCl2, 20 mM HEPES, 0.01% pluronic F-68, pH 7.4) containing 0.1% DMSO and cells were equilibrated for 90 min at 22°C in the EPIC Benchtop (BT) System (Corning) to establish a stable DMR signal. After 3-5 min baseline recordings, peptides (10 μM) were added in duplicate wells using an electronic 384-channel Viaflo pipette (Integra Biosciences, Switzerland) and DMR responses were measured for 60 min at 22°C. 100 nM norepinephrine was included as an internal assay control to assess the cellular DMR response via endogenously-expressed adrenoceptors in the TREx 293 cells. Real-time data were processed using the BT to column converter MS-Excel macro (Corning) and analyzed in GraphPad Prism 7.0. DMR recordings in peptide screening experiments were buffer and solvent corrected and the area under the curve (AUC) was quantified. For subsequent validation experiments, peptides were diluted in assay buffer containing 0.1% DMSO and DMR assays were performed as above. […] Data represent mean ± standard error of the mean (SEM) from at least 3 biologically independent experiments.
A TR-FRET real-time internalization assay was used to examine peptide-dependent changes in orphan receptor localization as described previously ([Foster and Bräuner-Osborne, 2018]). Surface-expressed SNAP-tagged receptors were labeled with a cell-impermeable luminescent terbium cryptate (100 nM SNAP Lumi4-Tb; Cisbio, France) for 1 hr at 37°C. Cells were washed to remove excess terbium and incubated with fluorescein-O-acetic acid (100 μM; Sigma Aldrich) for 5 min at 37°C. Peptides were added as for DMR assays, and internalization responses were recorded for 60 min at 37°C using an EnVision 2104 Multimode plate reader (PerkinElmer). 100 nM GLP-1 was used as a positive control for SNAP-GLP1R internalization. Real-time internalization responses were calculated based on TR-FRET (excitation 340 nm; emission 520 nm and 615 nm), and were expressed as the ratio between donor (terbium) and acceptor (fluorescein) emission. For peptide screening analysis (both DMR and internalization assays), we calculated the area under the curve from the real-time traces. […] Validation experiments for receptor internalization were performed as above. Internalization data was processed in MS-Excel and area under the curve was used to generate concentration-response curves using GraphPad Prism 7.0. Data represent mean ± standard error of the mean (SEM) from at least 3 biologically independent experiments.

Experiment [4] deals with GPR3. Conditions: target GPR3.
The subject of experiment [5] is BRS3. Briefly: Repeat of proposed literature pairing (mass redistribution and/or internalization). Format: cell-based, human. Conditions: target BRS3.
Experiment [6] concerns the target T2, GPR1 (Homo sapiens, UniProt P46091).
T2 sequence (P46091 1-355): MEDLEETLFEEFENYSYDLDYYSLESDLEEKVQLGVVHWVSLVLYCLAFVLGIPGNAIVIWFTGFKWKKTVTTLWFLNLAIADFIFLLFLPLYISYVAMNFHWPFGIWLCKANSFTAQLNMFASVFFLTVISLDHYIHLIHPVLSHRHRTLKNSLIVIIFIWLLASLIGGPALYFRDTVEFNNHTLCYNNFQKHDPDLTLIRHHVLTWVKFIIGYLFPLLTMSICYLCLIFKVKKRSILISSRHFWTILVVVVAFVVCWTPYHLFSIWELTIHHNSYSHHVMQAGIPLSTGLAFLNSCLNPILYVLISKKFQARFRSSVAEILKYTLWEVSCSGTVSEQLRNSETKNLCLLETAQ
The description is as above. Format: cell-based. More on the design: host or cells: HTLA cells (HEK293-derived).
Excerpt: as §1, §2

Experiment [7] has as its system human GPCRs. More on the design: method as in Guide to Pharmacology database. The note with it: max reported value, ref Guide to Pharmacology database, cited from earlier work. An excerpt: Supplement mmc1.xlsx, sheet "HumanGPCRLigands" | column: pKi_value; pKd_value; pEC50_value; pIC50_value
The target in experiment [8] is T3, MRGPRX2 (Homo sapiens, UniProt Q96LB1).
T3 construct: host or cells: HTLA cells (HEK293-derived)
T3 sequence (Q96LB1 1-330): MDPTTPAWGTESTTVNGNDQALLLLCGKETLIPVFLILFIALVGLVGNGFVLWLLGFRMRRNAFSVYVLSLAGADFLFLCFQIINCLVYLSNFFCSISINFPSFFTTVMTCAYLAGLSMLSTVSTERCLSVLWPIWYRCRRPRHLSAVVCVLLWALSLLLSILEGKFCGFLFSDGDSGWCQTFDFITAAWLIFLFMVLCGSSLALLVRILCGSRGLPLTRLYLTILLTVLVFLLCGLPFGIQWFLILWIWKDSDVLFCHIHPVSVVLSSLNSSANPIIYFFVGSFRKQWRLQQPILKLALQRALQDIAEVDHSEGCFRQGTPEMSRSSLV
Kind of experiment: Repeat of proposed literature pairing (mass redistribution and/or internalization). Format: cell-based. The note with it: repeat of literature pairing across multiple assays; cleavage variants CST-14 and SRIF-28 tested; Figure S7A.
Excerpt: as §1, §2

Experiment [9] deals with T4, bombesin receptor 3 (human) (UniProt P32247).
T4 sequence: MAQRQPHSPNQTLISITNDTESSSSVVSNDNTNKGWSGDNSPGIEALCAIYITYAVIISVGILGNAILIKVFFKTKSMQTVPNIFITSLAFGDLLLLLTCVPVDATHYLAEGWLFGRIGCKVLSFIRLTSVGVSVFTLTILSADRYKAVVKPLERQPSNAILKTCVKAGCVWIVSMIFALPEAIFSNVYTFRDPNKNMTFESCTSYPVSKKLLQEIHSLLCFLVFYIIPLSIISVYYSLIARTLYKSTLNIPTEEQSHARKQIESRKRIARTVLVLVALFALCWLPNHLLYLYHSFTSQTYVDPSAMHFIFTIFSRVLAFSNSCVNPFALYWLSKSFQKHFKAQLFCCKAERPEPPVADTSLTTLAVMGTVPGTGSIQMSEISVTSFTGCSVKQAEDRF

The mark [10] stands for this setting: reported ligand tested on receptor-expressing cell line.
The mark [11] stands for this setting: receptor CMKLR1 (cml1_human, Q99788).

Sequence of GPR55 (Q9Y2T6 2-319 limits assumed): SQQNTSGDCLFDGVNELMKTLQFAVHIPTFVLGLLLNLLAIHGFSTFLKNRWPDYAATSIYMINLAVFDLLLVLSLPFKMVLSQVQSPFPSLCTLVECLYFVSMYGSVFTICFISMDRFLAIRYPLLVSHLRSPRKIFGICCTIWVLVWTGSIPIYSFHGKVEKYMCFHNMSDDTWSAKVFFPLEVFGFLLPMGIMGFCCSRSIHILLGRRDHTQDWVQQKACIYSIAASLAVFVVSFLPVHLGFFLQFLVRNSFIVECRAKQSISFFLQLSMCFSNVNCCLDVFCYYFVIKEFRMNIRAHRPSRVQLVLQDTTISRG

As for `Cc1c(C(=O)NN2CCCCC2)nn(-c2ccc(Cl)cc2Cl)c1-c1ccc(I)cc1` [AM251], in experiment [1], the “Comment (response in DMR / internalization assays)” value is “Robust response”. The “Active in DMR/internalization” value in experiment [1] (setting [10]) is given as “Yes”.

As to `CSCC[C@H](NC(=O)[C@H](CO)NC(=O)[C@H](Cc1ccc(O)cc1)NC(=O)[C@@H](N)CO)C(=O)N[C@@H](CCC(=O)O)C(=O)N[C@@H](Cc1cnc[nH]1)C(=O)N[C@@H](Cc1ccccc1)C(=O)N[C@@H](CCCNC(=N)N)C(=O)N[C@@H](Cc1c[nH]c2ccccc12)C(=O)NCC(=O)N[C@@H](CCCCN)C(=O)N1CCC[C@H]1C(=O)N[C@H](C(=O)NCC(=O)N[C@@H](CCCCN)C(=O)N[C@@H](CCCCN)C(=O)N[C@@H](CCCNC(=N)N)C(=O)N[C@@H](CCCNC(=N)N)C(=O)N1CCC[C@H]1C(=O)N[C@H](C(=O)N[C@@H](CCCCN)C(=O)N[C@H](C(=O)N[C@@H](Cc1ccc(O)cc1)C(=O)N1CCC[C@H]1C(=O)N[C@@H](CC(N)=O)C(=O)NCC(=O)N[C@@H](C)C(=O)N[C@@H](CCC(=O)O)C(=O)N[C@@H](CC(=O)O)C(=O)N[C@@H](CCC(=O)O)C(=O)N[C@@H](CO)C(=O)N[C@@H](C)C(=O)N[C@@H](CCC(=O)O)C(=O)N[C@@H](C)C(=O)N[C@@H](Cc1ccccc1)C(=O)N1CCC[C@H]1C(=O)N[C@@H](CC(C)C)C(=O)N[C@@H](CCC(=O)O)C(=O)N[C@@H](Cc1ccccc1)C(=O)O)C(C)C)C(C)C)C(C)C` [Corticotropin, ACTH] (H-SYSMEHFRWGKPVGKKRRPVKVYPNGAEDESAEAFPLEF-OH), the figures for the EC50 in experiment [2] and in experiment [3] were 1150 nM and 66.1 nM, respectively.

`[Cl-].c1ccc2c(c1)[I+]c1ccccc1-2` [Diphenyleneiodonium chloride (DPI)]: the “Comment (response in DMR / internalization assays)” value in experiment [4] is given as “Robust response in DMR, no response in internalization assay”. The “Active in DMR/internalization” value in [4] (setting [10]) is reported as “Yes (DMR)”.

`O[C@@](Cc1ncc(CC2(C(F)(F)F)CC2)[nH]1)(c1ccc(-n2cccn2)cc1)C(F)(F)F` [MK-5046]: in [5], the “Comment (response in DMR / internalization assays)” value was “Robust response”. In addition, in [5] (setting [10]), the “Active in DMR/internalization” value is given as “Yes”.

chemerin [reference compound]: the “Peptide pairing for orphan receptor GPR1 (confirmed/unconfirmed)” value in experiment [6] (repeat of literature pairing) is “Confirmed peptide pairings for orphans”. Moreover, the “receptor-dependent activation by proposed ligand, GPR1” value in experiment [6] (repeat of literature pairing across multiple assays, Figure S7A, Tables S5 and S7) is on record as “selective receptor-dependent activation”. For the same molecule, in experiment [7] (setting [11]), the pEC50_value is reported as 8.5 and the pKd_value is 8.3.

Take cortistatin: in [8], the “receptor-dependent activation by proposed ligand, MRGPRX2” value was “selective receptor-dependent activation”.

Regarding somatostatin [reference compound], the pKi_value is on record as 9.4 in [7] (receptor SSTR1 (ssr1_human, P30872)); 10.2 in experiment [7] (receptor SSTR2 (ssr2_human, P30874)); 9.9 in [7] (receptor SSTR3 (ssr3_human, P32745)); 9.2 in [7] (receptor SSTR4 (ssr4_human, P31391)); 10.3 in experiment [7] (receptor SSTR5 (ssr5_human, P35346)). The “receptor-dependent activation by proposed ligand, MRGPRX2” value in [8] is listed as “selective receptor-dependent activation”.

In the case of GNLWATGHFM [neuromedin B], in experiment [9], the pEC50 of neuromedin B responses in G (q/11) signaling assays (IP1 generation) came to 6.39 pEC50 and the pEC50 of neuromedin B responses in mass redistribution amounted to 7.43 pEC50.
